In patent US20110257210A1, “BENZIMIDAZOLE DERIVATIVES AND THEIR USE FOR MODULATING THE GABAA RECEPTOR COMPLEX” (NEUROSEARCH A/S, priority 2008, published 2011) one finds IC50 data, which are given here for 9 compounds.

The target of this experiment is benzodiazepine binding site on GABAA receptors (rat cerebral cortex membranes). As to the kind of experiment: In vitro inhibition of 3H-flunitrazepam (3H-FNM) binding. As to conditions: inhibition of specific binding of 3H-FNM (1 nM), cerebral cortex membranes from male Wistar rats, 40 min at 2° C. Here is the method: In Vitro Inhibition of ^3H-flunitrazepam (^3H-FNM) Binding
The GABA recognition site and the benzodiazepine modulatory unit can selectively be labelled with ^3H-flunitrazepam.
Preparations are performed at 0-4° C. unless otherwise indicated. Cerebral cortex from male Wistar rats (150-200 g) is homogenised for 5-10 sec in 20 ml Tris-HCl (30 mM, pH 7.4) using an Ultra-Turrax homogeniser. The suspension is centrifuged at 27,000×g for 15 min and the pellet is washed three times with buffer (centrifuged at 27,000×g for 10 min). The washed pellet is homogenized in 20 ml of buffer and incubated on a water bath (37° C.) for 30 min to remove endogenous GABA and then centrifuged for 10 min at 27,000×g. The pellet is then homogenized in buffer and centrifuged for 10 min at 27,000×g. The final pellet is resuspended in 30 ml buffer and the preparation is frozen and stored at −20° C.
The membrane preparation is thawed and centrifuged at 2° C. for 10 min at 27,000×g. The pellet is washed twice with 20 ml 50 mM Tris-citrate, pH 7.1 using an Ultra-Turrax homogeniser and centrifuged for 10 min at 27,000×g. The final pellet is resuspended in 50 mM Tris-citrate, pH 7.1 (500 ml buffer per g of original tissue), and then used for binding assays. Aliquots of 0.5 ml tissue are added to 25 μl of test solution and 25 μl of ^3H-FNM (1 nM, final concentration), mixed and incubated for 40 min at 2° C. Non-specific binding is determined using Clonazepam (1 μM, final concentration). After incubation the samples are added 5 ml of ice-cold buffer and poured directly onto Whatman GF/C glass fibre filters under suction and immediately washed with 5 ml ice-cold buffer. The amount of radioactivity on the filters is determined by conventional liquid scintillation counting. Specific binding is total binding minus non-specific binding.
25-75% inhibition of specific binding must be obtained, before calculation of an IC50.
The test value will be given as IC50 (the concentration (μM) of the test substance which inhibits the specific binding of ^3H-FNM by 50%).
Co is specific binding in control assays, and
CX is the specific binding in the test assay.
(The calculations assume normal mass-action kinetics).
The compound `CC(C)(O)c1ccc2c(c1)ncn2-c1ccc(F)c(-c2ccncc2C#N)c1` [Compound 7i, 4-{2-Fluoro-5-[5-(1-hydroxy-1-methyl-ethyl)-benzoimidazol-1-yl]-phenyl}-nicotinonitrile] returned an IC50 of 1.1 nM.

For `CC(C)(O)c1ccc2c(c1)ncn2-c1ccc(F)c(-c2cccnc2F)c1` [Compound 7a, 2-{1-[4-Fluoro-3-(2-fluoro-pyridin-3-yl)-phenyl]-1H-benzoimidazol-5-yl}-propan-2-ol], the IC50 is 1.6 nM.

For `COc1ncc(-c2cc(-n3cnc4cc(C(C)(C)O)ccc43)ccc2F)c(OC)n1` [Compound 7h, 2-{1-[3-(2,4-Dimethoxy-pyrimidin-5-yl)-4-fluoro-phenyl]-1H-benzoimidazol-5-yl}-propan-2-ol], the 50% inhibitory concentration (IC50) came out at 0.77 nM. This IC50 lies about 2.1-fold lower than the previous one.

For the compound `CC(C)(O)c1ccc2c(c1)ncn2-c1ccc(F)c(-c2cccnc2Cl)c1` [Compound 7b, 2-{1-[3-(2-Chloro-pyridin-3-yl)-4-fluoro-phenyl]-1H-benzoimidazol-5-yl}-propan-2-ol], the IC50 came to 1.9 nM. This IC50 lies about 2.5-fold higher than the previous one.

Turning to `COc1ncccc1-c1cc(-n2cnc3cc(C(C)(C)O)ccc32)ccc1F` [Compound 7d, 2-{1-[4-Fluoro-3-(2-methoxy-pyridin-3-yl)-phenyl]-1H-benzoimidazol-5-yl}-propan-2-ol], the IC50 was 0.29 nM.

`CC(C)(O)c1ccc2c(c1)ncn2-c1ccc(F)c(-c2cncc(C#N)c2)c1` [Compound 7g, 5-{2-Fluoro-5-[5-(1-hydroxy-1-methyl-ethyl)-benzoimidazol-1-yl-]-phenyl}-nicotinonitrile] returned an IC50 of 99 nM.

As for `CC(C)(O)c1ccc2c(c1)ncn2-c1ccc(F)c(-c2ccncc2Cl)c1` [Compound 7c, 2-{1-[3-(3-Chloro-pyridin-4-yl)-4-fluoro-phenyl]-1H-benzoimidazol-5-yl}-propan-2-ol], the IC50 is 0.64 nM.

The compound `CC(C)(O)c1ccc2c(c1)ncn2-c1ccc(F)c(-c2ccnc(Cl)c2F)c1` [Compound 7f, 2-{1-[3-(2-Chloro-3-fluoro-pyridin-4-yl)-4-fluoro-phenyl]-1H-benzoimidazol-5-yl}-propan-2-ol] yielded a 50% inhibitory concentration (IC50) of 2.5 nM.

The compound `CC(C)(O)c1ccc2c(c1)ncn2-c1ccc(F)c(-c2ccncc2F)c1` [Compound 7e, 2-{1-[4-Fluoro-3-(3-fluoro-pyridin-4-yl)-phenyl]-1H-benzoimidazol-5-yl}-propan-2-ol] came in with an IC50 of 1.1 nM.

The IC50 is the concentration that gives 50% inhibition. The low end stands for greater potency, the high end for weaker potency.
